Reference: US20070218105A1, “Topical Treatment with NGF and DHA in Damaged Corneas” (priority 2004, published 2007)
Values joined by “and” are separate entries in the source; they are usually repeats but may differ in a detail not shown here. Equal entries are not always repeated.

Tests used:
Assay type in all cases: in vivo, New Zealand albino rabbits
[1] = test system: Rabbit Corneas; test: Schirmer's test (tear secretion) after PRK; conditions: mean ± Standard Error
Protocol: (§1) Twenty-one New Zealand albino rabbits weighing 1.5 to 2.0 kg were obtained from a commercial supplier and were treated in accordance with the guidelines of the Association for Research in Vision and Ophthalmology. Each rabbit received intramuscular xylazine (10 mg/kg) and ketamine hydrochloride (50 mg/kg) anesthesia. Tetracaine eye drops were used as topical anesthesia. Tear secretion tests (e.g., tear break-up time, Schirmer's test, and rose bengal staining) were performed preoperatively under general anesthesia. Each rabbit received a unilateral PRK laser treatment. The corneal epithelium was removed with an epithelial scrubber (Katena Inc, Denville, N.J.). An excimer laser ablation to correct −5 diopters of myopia using a 6.5 mm optical zone (Lasersight Technologies, Inc., Winter Park, Fla.) was performed. The eye was washed with balanced salt solution. Lubricating eye drops and an ophthalmic solution of 0.3% ofloxacin eye drops (Allergan Inc, Irvine, Calif.) were used postoperatively. Unless otherwise indicated, all chemicals were purchased from Sigmna Chemical Co. (St. Louis, Mo.).
(§2) Twenty-one New Zealand albino rabbits were divided in 4 groups. The three experimental groups consisted of 6 rabbits each. The control group had only 3 rabbits. The rabbits within each of the four groups were randomized to receive twice-weekly topical treatments through 72-hour collagen shields (Oasis Medical Inc.; Glendora, Calif.) for a total of eight weeks. […]
(§3) Statistical analyses were performed using the Statistical Analysis System (SAS) software version 9.0 (SAS Institute, Cary, N.C.). The tear secretion tests (Schirmer, tear break-up time and rose bengal staining) and density of nerve areas were analyzed using a repeated measures design in the analysis of variance (ANOVA). The differences in the tear secretion tests between the four treatment groups were analyzed at each time point. The effect of the various treatments on tubulin III-, CGRP- and SP-positive epithelial and sub-basal nerve areas was evaluated with a multivariate test. […]

[2] = test system: corneal epithelium; test: Ki-67 immunostaining of proliferating cells in corneal epithelium after PRK; conditions: 8 weeks after PRK
Protocol: as §2, with “weeks. The four treatments were as follows: (1) 0.1 μg NGF (25 μl) plus 100 μl phosphate buffered saline (PBS); (2) 100 μg DHA (100 μl) plus 25 μl of PBS; (3) 0.1 μg NGF (25 μl) plus 100 μg DHA (100 μl); and (4) 125 μl of PBS with albumin (control).” for “weeks.”
(§4) Rabbits were humanely euthanized at 8 weeks post-PRK surgery using an intravenous overdose of pentobarbital. […] Each section was evaluated with hematoxylin and eosin (H&E) stain and by immuno-histochemical analysis. […]
Photographs of the tissue sections were acquired using MetaVue version 5.0r3 (Universal Imaging Corp.; Downingtown, Pa.) and saved as a TIFF file. (Data not shown) The tubulin III-, CGRP- and SP-positive tissue nerve areas and the percentage of Ki-67 cells were calculated with respect to the total area using the image analysis program Image Pro Plus 4.5 (Media Cybernetics Inc., Silver Spring, Md.). Sub-basal and epithelial nerve areas were measured in all groups eight weeks after PRK using anti-class III β tubulin, CGRP and SP monoclonal antibodies. […]

[3] = test system: Rabbit Corneas; test: Rose bengal staining after PRK; conditions: first postoperative month (30 days after PRK)
Protocol: as §1, with “The eye was washed with balanced salt solution. Lubricating eye drops and an ophthalmic solution of 0.3% ofloxacin eye drops (Allergan Inc, Irvine, Calif.) were used postoperatively. Unless otherwise indicated, all chemicals were purchased from Sigmna Chemical Co. (St. Louis, Mo.).” left out
as §3

[4] = test system: sub-basal and epithelial nerve bundles; test: Class III β-tubulin staining of sub-basal and epithelial nerve bundle area after PRK; conditions: 8 weeks after PRK
Protocol: as §2, with “weeks. The four treatments were as follows: (1) 0.1 μg NGF (25 μl) plus 100 μl phosphate buffered saline (PBS); (2) 100 μg DHA (100 μl) plus 25 μl of PBS; (3) 0.1 μg NGF (25 μl) plus 100 μg DHA (100 μl); and (4) 125 μl of PBS with albumin (control).” for “weeks.”
as §3, §4

[5] = test system: Rabbit Corneas; test: Tear break-up time after PRK; conditions: for Tear Break-Up Time: mean ± Standard Error
Protocol: as §1
Twenty-one New Zealand albino rabbits were divided in 4 groups. The three experimental groups consisted of 6 rabbits each. The control group had only 3 rabbits. The rabbits within each of the four groups were randomized to receive twice-weekly topical treatments through 72-hour collagen shields (Oasis Medical Inc.; Glendora, Calif.) for a total of eight weeks. The four treatments were as follows: (1) 0.1 μg NGF (25 μl) plus 100 μl phosphate buffered saline (PBS); (2) 100 μg DHA (100 μl) plus 25 μl of PBS; (3) 0.1 μg NGF (25 μl) plus 100 μg DHA (100 μl); and (4) 125 μl of PBS with albumin (control). In all animals, a tarsorrhaphy was performed on the treated eyes, and the eyes were opened only twice a week to introduce a new collagen shield.
Statistical analyses were performed using the Statistical Analysis System (SAS) software version 9.0 (SAS Institute, Cary, N.C.). The tear secretion tests (Schirmer, tear break-up time and rose bengal staining) and density of nerve areas were analyzed using a repeated measures design in the analysis of variance (ANOVA). The differences in the tear secretion tests between the four treatment groups were analyzed at each time point. The effect of the various treatments on tubulin III-, CGRP- and SP-positive epithelial and sub-basal nerve areas was evaluated with a multivariate test. Comparisons among the four treatments groups were made using adjusted least square means with alpha levels corrected by a simulation method.
Tear secretion tests (tear break-up time, Schirmer's test and rose bengal staining) were performed every 15 days over the 8-week period following PRK. All the tests were performed with general anesthesia. […]

CC/C=C\C/C=C\C/C=C\C/C=C\C/C=C\C/C=C\CCC(=O)O [DHA, docosahexaenoic acid]
Schirmer's Test ([1]; 15 Days after PRK): 10 mm and 10.0 ± 3.7 mm
Schirmer's Test ([1]; 30 Days (1 month) after PRK): 11.5 mm and 11.5 ± 3.4 mm
Schirmer's Test ([1]; 45 Days after PRK): 12.5 ± 2.3 mm
percentage of Ki-67 positive epithelial cells [2]: 6%
eyes with positive rose bengal staining [3]: 33%
average ratio of sub-basal tubulin-positive nerve bundle area to total area ([4]; FIG. 2A): ~1.2
ratio of the tubulin positive nerve bundle area to the total epithelial area ([4]; epithelial layer, FIG. 2B): no significant effect
tear break-up time measurement ([5]; 1 week postoperative): 14.5 s
Tear Break-Up Time ([5]; 15 Days after PRK): 14.5 ± 6.2 s
Tear Break-Up Time ([5]; 30 Days (1 month) after PRK): 14.0 s and 14.0 ± 4.8 s
Tear Break-Up Time ([5]; 45 Days after PRK): 14.0 ± 4.0 s
